Source: patent publication US5418235A, “Aminoalkyl-substituted 5-mercaptothiazoles, the preparation and use thereof” (BASF Aktiengesellschaft, priority 1991, dated 1995)
Structures can show the parent of a compound that is named as a salt. Where two headings read alike, the source gives them in different places.

Target: dopamine D2 receptor (Rattus norvegicus, UniProt P61169)
Assay: Receptor binding assay, 3H-ADTN displacement on rat striatal membranes (affinity for the dopamine D2 receptor)
Set-up: species or system rat (Sprague Dawley)
[1] = rat striatal membranes, 1 nM 3H-ADTN, 0.1 μM SCH 23390, 40 min at 25° C., non-specific binding with 50 nM spiperone, read-out: Ki, affinity of the test substances for the dopamine D2 receptor

Sequence of dopamine D2 receptor (P61169 whole entry): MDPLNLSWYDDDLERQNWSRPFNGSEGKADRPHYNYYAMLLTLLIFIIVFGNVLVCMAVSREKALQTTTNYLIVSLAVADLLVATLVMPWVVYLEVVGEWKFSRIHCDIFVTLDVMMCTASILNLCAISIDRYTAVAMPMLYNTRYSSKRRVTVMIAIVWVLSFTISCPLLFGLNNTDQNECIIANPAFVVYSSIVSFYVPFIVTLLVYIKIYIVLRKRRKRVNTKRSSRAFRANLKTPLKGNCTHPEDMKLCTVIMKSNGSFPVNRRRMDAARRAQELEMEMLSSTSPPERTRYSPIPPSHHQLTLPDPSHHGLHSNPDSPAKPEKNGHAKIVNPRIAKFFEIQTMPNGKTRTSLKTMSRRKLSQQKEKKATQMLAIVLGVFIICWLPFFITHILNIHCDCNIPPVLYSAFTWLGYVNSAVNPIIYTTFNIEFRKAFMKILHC
Description: Striata from rats (Sprague Dawley, Charles River) were homogenized immediately after removal in 0.32M sucrose solution (0° C.). The homogenate was filtered through gauze, the filtrate was centrifuged at 1000 ×g (5 min at 4° C.) and the resulting supernatant was centrifuged at 40000 ×g (4° C., 10 min). The residue (membranes) was taken up in incubation buffer (50 mM tris-HCl, 1 mM MgCl2 and 0.1% ascorbic acid, pH 7.4) and incubated at 37° C. for 20 min. The residue was subsequently washed 2× with incubation buffer by resuspension and recentrifugation. The membranes were frozen in portions in liquid nitrogen.
The assay mixtures (1 ml) were composed of membranes (380 μg of protein), 1 nM ^3 H-ADTN (NEN, Dreieich Germany, specific radioactivity 1.4 TBq/mmol) and 0.1 μM SCH 23390 (total binding) or a) with the addition of 50 nM spiperone (non-specific binding) or b) with test substance. The mixtures were prepared in triplicate.
After the incubation (40 min at 25° C.) the mixtures were filtered through glass fiber filters (Whatman GF/B) and briefly washed with ice-cold washing buffer (tris-HCl, pH 7.4). The radioactivity retained on the filters was determined by liquid scintillation counting. The non-specific binding comprised about 40-50% of the total binding.
The evaluation of the competition plots and the determination of the dissociation constant took place by iterative non-linear regression analysis based on the "ligand" program (Muson and Rodbard: Anal. Biochem. 107 (1980) 220).

Cc1nc(N)sc1SCCN1CCC(c2ccccc2)CC1 [Example 1, 2-Amino-4-methyl-5-[2-(4-phenylpiperidinyl)ethyl-thio]thiazole hydrochloride]
Ki [1]: 12 nM

Cc1nc(N)sc1SCCN1CCN(c2ccccc2)CC1 [Example 3, 2-Amino-4-methyl-5-[2-(4-phenylpiperazinyl)ethylthio]thiazole hydrochloride]
Ki [1]: 19 nM

Cc1nc(N)sc1SCCN1CC=C(c2ccccc2)CC1 [Example 2, 2-Amino-5-[2-(1,2,3,6-tetrahydro-4-phenylpyridinyl)-ethylthio]-4-methylthiazole hydrochloride]
Ki: 3 nM

CCCN(CCSc1sc(N)nc1C)CCc1ccccc1 [Example 5, 2-Amino-4-methyl-5-[2-(N-phenethyl-N-propylamino)-ethylthio]thiazole hydrochloride]
Ki [1]: 18 nM

CCCN(CCCSc1sc(N)nc1C)CCc1ccccc1 [Example 7, 2-Amino-4-methyl-5-[3-(N-phenethyl-N-propylamino)propylthio]thiazole tartrate]
Ki [1]: 9 nM
